Experimental data reported in the supplement of paper PMC10883282.
Where a name gives a salt, the structure may show the parent alone. ± gives the standard deviation of the averaged measurements.

System: HT1080
Assay: relative viability vs DMSO control (72 h) (fraction); higher = more viable cells
Summary of the method: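 Sarcoma cell lines were seeded in 384-well plates at densities chosen for 80–90% confluence, then 24 h later given 2.5 µl of serially diluted compound drawn from source plates spanning 10 mM to 0.0002 mM. They were held 72 h at 37 °C, 5% CO2, with 0.1% DMSO vehicle and a 5 µM positive control included. Relative viability was read with ATPLite as percent growth and averaged over up to triplicate wells. Rescaling placed full at 1 and none at 0.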

| Compound | relative viability (0.00017 µM) | relative viability (0.00051 µM) | relative viability (0.00152 µM) | relative viability (0.00457 µM) | relative viability (0.01372 µM) | relative viability (0.04115 µM) | relative viability (0.1235 µM) | relative viability (0.3704 µM) | relative viability (1.111 µM) | relative viability (3.333 µM) | relative viability (10 µM) |
| --- | --- | --- | --- | --- | --- | --- | --- | --- | --- | --- | --- |
| C[C@@H]1COCCN1c1cc(-c2ccnn2C)c2ccnc(-c3ccn[nH]3)c2n1 | 1.044 ± 0.0047 | 1.03 ± 0.014 | 1.024 ± 0.0029 | 1.02 ± 0.025 | 0.998 ± 0.035 | 0.954 ± 0.017 | 0.735 ± 0.037 | 0.28 ± 0.0093 | 0.191 ± 0.0041 | 0.16 ± 0.0093 | 0.1555 ± 0.00028 |
| CCN1CCN(Cc2ccc(Nc3ncc(F)c(-c4cc(F)c5nc(C)n(C(C)C)c5c4)n3)nc2)CC1 [Abemaciclib] | 1.05 ± 0.0085 | 1.05 ± 0.034 | 1.06 ± 0.018 | 1.08 ± 0.034 | 1.06 ± 0.011 | 1.07 ± 0.018 | 1.13 ± 0.053 | 1.18 ± 0.045 | 1.15 ± 0.055 | 1.07 ± 0.045 | 0.926 ± 0.063 |
| CCc1cc2c(cc1N1CCC(N3CCOCC3)CC1)C(C)(C)c1[nH]c3cc(C#N)ccc3c1C2=O [Alectinib] | 1.07 ± 0.018 | 1.09 ± 0.0051 | 1.06 ± 0.032 | 1.09 ± 0.014 | 1.077 ± 0.0047 | 1.11 ± 0.045 | 1.08 ± 0.02 | 1.11 ± 0.028 | 1.07 ± 0.024 | 1.07 ± 0.047 | 1.02 ± 0.051 |
| Cc1nc(NC(=O)N2CCC[C@H]2C(N)=O)sc1-c1ccnc(C(C)(C)C(F)(F)F)c1 [Alpelisib] | 1.06 ± 0.032 | 1.05 ± 0.027 | 1.05 ± 0.022 | 1.08 ± 0.031 | 1.01 ± 0.014 | 1.04 ± 0.018 | 1 ± 0.023 | 1.02 ± 0.037 | 0.994 ± 0.03 | 0.977 ± 0.034 | 0.889 ± 0.016 |
| Cn1cc(-c2cc3c(N4CCN(c5ncc([C@@](C)(N)c6ccc(F)cc6)cn5)CC4)ncnn3c2)cn1 [Avapritinib] | 0.967 ± 0.065 | 1.03 ± 0.019 | 0.98 ± 0.042 | 1.01 ± 0.041 | 1 ± 0.017 | 1.01 ± 0.039 | 1.03 ± 0.048 | 1.01 ± 0.013 | 0.908 ± 0.029 | 0.905 ± 0.014 | 0.826 ± 0.023 |
| CC(C)NC(=O)C1CCC(n2c(NC(=O)c3ccc(F)cc3)nc3ccc(CN4CCC(C(C)(C)O)CC4)cc32)CC1 (stereo unspecified) [Belizatinib] | 1.079 ± 0.0088 | 1.09 ± 0.036 | 1.05 ± 0.018 | 1.08 ± 0.057 | 1.07 ± 0.052 | 1.08 ± 0.021 | 1.062 ± 0.0014 | 1.06 ± 0.069 | 1.03 ± 0.056 | 0.866 ± 0.014 | 0.4946 ± 0.0036 |
| Cn1cnc2c(F)c(Nc3ccc(Br)cc3F)c(C(=O)NOCCO)cc21 [Binimetinib] | 1.1 ± 0.019 | 1.09 ± 0.031 | 1.09 ± 0.021 | 1.03 ± 0.026 | 1.031 ± 0.0075 | 0.8738 ± 0.0029 | 0.752 ± 0.017 | 0.626 ± 0.015 | 0.577 ± 0.026 | 0.518 ± 0.034 | 0.451 ± 0.032 |
| Nc1cc(C(F)(F)F)c(-c2cc(N3CCOCC3)nc(N3CCOCC3)n2)cn1 [Buparlisib] | 1.01 ± 0.077 | 1.02 ± 0.024 | 1.018 ± 0.0073 | 1.05 ± 0.036 | 1.04 ± 0.015 | 1.03 ± 0.022 | 1.03 ± 0.039 | 1.07 ± 0.013 | 1 ± 0.013 | 0.11 ± 0.0037 | 0.0244 ± 0.0015 |
| CNC(=O)c1ccc(-c2cnc3ncc(Cc4ccc5ncccc5c4)n3n2)cc1F [Capmatinib] | 1.06 ± 0.022 | 1.06 ± 0.041 | 1.06 ± 0.018 | 1.06 ± 0.014 | 1.06 ± 0.012 | 1.04 ± 0.019 | 1.05 ± 0.014 | 1.05 ± 0.028 | 1.044 ± 0.01 | 0.989 ± 0.015 | 1.005 ± 0.0012 |
| COc1cc2c(Oc3ccc4[nH]c(C)cc4c3F)ncnc2cc1OCCCN1CCCC1 [Cediranib] | 1.08 ± 0.022 | 1.08 ± 0.015 | 1.06 ± 0.011 | 1.095 ± 0.0091 | 1.1 ± 0.011 | 1.07 ± 0.031 | 1.08 ± 0.016 | 1.1 ± 0.015 | 1.1 ± 0.027 | 1.08 ± 0.035 | 1.06 ± 0.024 |
| COc1c(OCCCN2CCOCC2)ccc2c1N=C(NC(=O)c1cnc(N)nc1)N1CCN=C21 [Copanlisib] | 1.15 ± 0.059 | 1.14 ± 0.034 | 1.12 ± 0.04 | 1.111 ± 0.0021 | 1.1 ± 0.017 | 1.12 ± 0.016 | 1.08 ± 0.034 | 0.964 ± 0.026 | 0.65405 ± 0.00049 | 0.342 ± 0.022 | 0.224 ± 0.025 |
| CN1CCN(c2ccc3nc(-c4c(N)c5c(F)cccc5[nH]c4=O)[nH]c3c2)CC1 [Dovitinib] | 1.1 ± 0.047 | 1.09 ± 0.053 | 1.05 ± 0.046 | 1.1 ± 0.028 | 1.09 ± 0.013 | 1.095 ± 0.0071 | 1.11 ± 0.023 | 1.155 ± 0.0091 | 0.975 ± 0.017 | 0.632 ± 0.023 | 0.154 ± 0.08 |
| COc1cccc2c1C(=O)c1c(O)c3c(c(O)c1C2=O)C[C@@](O)(C(=O)CO)C[C@@H]3O[C@H]1C[C@H](N)[C@H](O)[C@H](C)O1 [Doxorubicin Hydrochloride] | 1.09 ± 0.015 | 1.071 ± 0.0078 | 1.04 ± 0.025 | 1.05 ± 0.024 | 0.97 ± 0.028 | 0.707 ± 0.01 | 0.5504 ± 0.0046 | 0.117 ± 0.0055 | 0.105 ± 0.0013 | 0.183 ± 0.0044 | 0.115 ± 0.0043 |
| Cc1cnc(Nc2ccc(OCCN3CCCC3)cc2)nc1Nc1cccc(S(=O)(=O)NC(C)(C)C)c1 [Fedratinib] | 1.11 ± 0.027 | 1.03 ± 0.056 | 1.08 ± 0.0082 | 1.06 ± 0.032 | 1.07 ± 0.044 | 1.05 ± 0.044 | 1.04 ± 0.009 | 1.03 ± 0.022 | 0.813 ± 0.015 | 0.391 ± 0.014 | 0.0298 ± 0.0037 |
| C=CC(=O)N1CCC[C@@H](n2nc(-c3ccc(Oc4ccccc4)cc3)c3c(N)ncnc32)C1 [Ibrutinib] | 1.07 ± 0.019 | 1.11 ± 0.019 | 1.1 ± 0.012 | 1.05 ± 0.012 | 1.1 ± 0.022 | 1.06 ± 0.055 | 1.06 ± 0.015 | 1.07 ± 0.025 | 1.12 ± 0.027 | 1.14 ± 0.022 | 1.101 ± 0.0017 |
| CC[C@H](Nc1ncnc2[nH]cnc12)c1nc2cccc(F)c2c(=O)n1-c1ccccc1 [Idelalisib] | 1.1 ± 0.032 | 1.1 ± 0.025 | 1.07 ± 0.017 | 1.12 ± 0.039 | 1.0913 ± 0.00051 | 1.12 ± 0.021 | 1.09 ± 0.038 | 1.12 ± 0.051 | 1.07 ± 0.027 | 1.08 ± 0.014 | 1.08 ± 0.04 |
